Measured values taken from ChEMBL document CHEMBL1909046, “DrugMatrix in vitro pharmacology data”.
Where a SMILES comes first, the peptide text is derived from it. Bridges are numbered along the chain shown (N, C = ends). [ ]: non-standard residue; d: D form. The star is where a group is joined. Ileψ(thiazoline)Cys = CC[C@H](C)[C@H](N)C1=N[C@H](C(=O)*)CS1; dOrn = NCCC[C@@H](N)C(=O)O

Key:
[1] = target: Histamine H2 receptor (Homo sapiens, UniProt P25021); type: cell membranes, CHO-K1, Membrane; conditions: cho-k1; also: in other assays of this panel Not Active means under 50% inhibition at 10 µM
Sequence of Histamine H2 receptor (P25021 whole entry): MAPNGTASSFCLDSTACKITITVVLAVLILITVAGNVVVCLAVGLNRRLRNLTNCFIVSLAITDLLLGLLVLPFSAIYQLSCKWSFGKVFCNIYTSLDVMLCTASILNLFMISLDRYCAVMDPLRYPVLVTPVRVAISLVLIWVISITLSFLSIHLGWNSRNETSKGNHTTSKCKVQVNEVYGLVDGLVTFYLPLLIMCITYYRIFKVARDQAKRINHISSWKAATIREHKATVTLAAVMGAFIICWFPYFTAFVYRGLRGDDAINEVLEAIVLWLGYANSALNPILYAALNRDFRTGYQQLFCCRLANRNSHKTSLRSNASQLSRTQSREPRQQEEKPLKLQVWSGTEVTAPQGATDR

[2] = target: T1, C-X-C chemokine receptor type 1 (Homo sapiens, UniProt P25024); also: in other assays of this panel Not Active means under 50% inhibition at 10 µM
T1 sequence (P25024 whole entry): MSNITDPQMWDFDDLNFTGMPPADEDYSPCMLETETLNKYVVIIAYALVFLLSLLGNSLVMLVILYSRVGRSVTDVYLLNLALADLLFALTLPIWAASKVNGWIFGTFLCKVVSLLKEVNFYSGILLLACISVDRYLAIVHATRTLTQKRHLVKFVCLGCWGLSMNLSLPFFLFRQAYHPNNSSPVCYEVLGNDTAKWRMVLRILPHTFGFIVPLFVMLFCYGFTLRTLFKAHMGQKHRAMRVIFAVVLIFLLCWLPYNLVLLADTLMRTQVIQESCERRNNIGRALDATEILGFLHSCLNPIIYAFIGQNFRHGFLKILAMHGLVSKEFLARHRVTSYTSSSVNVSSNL

[3] = DRUGMATRIX: GABAA, Chloride Channel, TBOB radioligand binding (ligand: [3H] TBOB); type: cell membranes, Rattus norvegicus, Wistar, Cerebral cortex, Membrane; conditions: Not Active = under 50% inhibition at 10 µM
[4] = target: Sodium-dependent noradrenaline transporter (Homo sapiens, UniProt P23975); assay: DRUGMATRIX: Norepinephrine Transporter radioligand binding (ligand: [125I] RTI-55); type: cell membranes, MDCK, Membrane; conditions: mdck; Not Active = under 50% inhibition at 10 µM
Sequence of Sodium-dependent noradrenaline transporter (P23975 whole entry): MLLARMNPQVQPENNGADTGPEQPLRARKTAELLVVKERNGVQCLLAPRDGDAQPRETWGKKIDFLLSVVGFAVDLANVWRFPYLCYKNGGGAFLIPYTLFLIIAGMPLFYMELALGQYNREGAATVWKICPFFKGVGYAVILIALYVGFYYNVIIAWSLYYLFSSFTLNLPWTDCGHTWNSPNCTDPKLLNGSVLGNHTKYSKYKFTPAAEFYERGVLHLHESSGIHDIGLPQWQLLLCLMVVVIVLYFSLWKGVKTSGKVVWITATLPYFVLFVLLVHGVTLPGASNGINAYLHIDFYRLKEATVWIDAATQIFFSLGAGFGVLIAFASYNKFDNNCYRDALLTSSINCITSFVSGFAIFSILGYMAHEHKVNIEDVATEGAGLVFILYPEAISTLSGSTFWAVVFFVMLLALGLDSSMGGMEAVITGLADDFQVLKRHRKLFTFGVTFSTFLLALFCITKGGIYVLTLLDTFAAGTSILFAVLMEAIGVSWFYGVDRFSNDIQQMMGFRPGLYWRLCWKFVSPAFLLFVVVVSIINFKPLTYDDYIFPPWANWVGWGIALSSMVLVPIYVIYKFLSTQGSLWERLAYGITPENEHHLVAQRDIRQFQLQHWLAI

[5] = DRUGMATRIX: Glutamate, Kainate radioligand binding (ligand: [3H] Kainic acid); type: cell membranes, Rattus norvegicus, Wistar, Brain, Membrane; conditions: Not Active = under 50% inhibition at 10 µM
[6] = target: Beta-3 adrenergic receptor (Homo sapiens, UniProt P13945); assay: DRUGMATRIX: Adrenergic beta3 radioligand binding (ligand: [125I] Cyanopindolol); type: cell membranes, HEK293, Membrane; conditions: hek293; Not Active = under 50% inhibition at 10 µM
Sequence of Beta-3 adrenergic receptor (P13945 whole entry): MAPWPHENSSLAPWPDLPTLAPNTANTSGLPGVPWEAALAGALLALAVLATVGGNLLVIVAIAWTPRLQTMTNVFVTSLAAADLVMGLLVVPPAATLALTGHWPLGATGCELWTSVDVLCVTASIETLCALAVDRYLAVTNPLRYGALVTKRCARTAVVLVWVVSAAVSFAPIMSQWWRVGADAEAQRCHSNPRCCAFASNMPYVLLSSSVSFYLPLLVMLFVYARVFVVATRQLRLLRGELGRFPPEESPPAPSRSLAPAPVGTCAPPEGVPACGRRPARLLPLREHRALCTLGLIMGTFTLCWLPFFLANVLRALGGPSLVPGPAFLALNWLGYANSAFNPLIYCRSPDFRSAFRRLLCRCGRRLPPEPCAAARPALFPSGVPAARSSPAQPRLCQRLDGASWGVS

[7] = DRUGMATRIX: beta-Lactamase enzyme inhibition (substrate: Nitrocefin); design: species or system Bacillus cereus; conditions: Not Active = under 50% inhibition at 10 µM
[8] = target: T2, D(4) dopamine receptor (Homo sapiens, UniProt P21917); assay: DRUGMATRIX: Dopamine D4.2 radioligand binding (ligand: [3H] Spiperone); type: cell membranes, CHO-K1, Membrane; conditions: cho-k1; Not Active = under 50% inhibition at 10 µM
T2 sequence (P21917 whole entry): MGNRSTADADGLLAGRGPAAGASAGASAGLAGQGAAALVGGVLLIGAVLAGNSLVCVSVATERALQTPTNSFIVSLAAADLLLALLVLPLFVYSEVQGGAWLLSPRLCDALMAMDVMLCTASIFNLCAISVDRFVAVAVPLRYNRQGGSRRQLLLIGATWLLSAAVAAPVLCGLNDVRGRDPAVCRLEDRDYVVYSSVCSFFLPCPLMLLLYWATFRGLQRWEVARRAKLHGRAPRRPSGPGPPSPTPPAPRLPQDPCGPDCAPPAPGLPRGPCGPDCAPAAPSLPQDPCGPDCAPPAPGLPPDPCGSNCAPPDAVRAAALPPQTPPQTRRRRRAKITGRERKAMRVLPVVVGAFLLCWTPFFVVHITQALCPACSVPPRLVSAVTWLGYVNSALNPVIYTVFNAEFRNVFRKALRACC

[9] = target: 5-hydroxytryptamine receptor 6 (Homo sapiens, UniProt P50406); type: cell membranes, HeLa, Membrane; conditions: hela; also: in other assays of this panel Not Active means under 50% inhibition at 10 µM
Sequence of 5-hydroxytryptamine receptor 6 (P50406 whole entry): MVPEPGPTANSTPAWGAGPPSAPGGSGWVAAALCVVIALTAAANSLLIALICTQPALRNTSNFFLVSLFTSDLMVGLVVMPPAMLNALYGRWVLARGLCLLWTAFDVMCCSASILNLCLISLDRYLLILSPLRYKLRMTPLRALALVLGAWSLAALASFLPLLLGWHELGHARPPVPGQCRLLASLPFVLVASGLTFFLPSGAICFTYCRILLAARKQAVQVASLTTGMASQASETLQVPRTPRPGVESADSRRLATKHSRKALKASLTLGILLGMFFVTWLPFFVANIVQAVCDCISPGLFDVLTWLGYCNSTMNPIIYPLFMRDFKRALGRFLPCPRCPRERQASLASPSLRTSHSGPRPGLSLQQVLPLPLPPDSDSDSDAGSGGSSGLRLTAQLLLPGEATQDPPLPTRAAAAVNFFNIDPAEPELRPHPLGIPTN

[10] = target: D(3) dopamine receptor (Homo sapiens, UniProt P35462); assay: DRUGMATRIX: Dopamine D3 radioligand binding (ligand: [3H] Spiperone); type: cell membranes, CHO, Membrane; conditions: cho
Sequence of D(3) dopamine receptor (P35462 whole entry): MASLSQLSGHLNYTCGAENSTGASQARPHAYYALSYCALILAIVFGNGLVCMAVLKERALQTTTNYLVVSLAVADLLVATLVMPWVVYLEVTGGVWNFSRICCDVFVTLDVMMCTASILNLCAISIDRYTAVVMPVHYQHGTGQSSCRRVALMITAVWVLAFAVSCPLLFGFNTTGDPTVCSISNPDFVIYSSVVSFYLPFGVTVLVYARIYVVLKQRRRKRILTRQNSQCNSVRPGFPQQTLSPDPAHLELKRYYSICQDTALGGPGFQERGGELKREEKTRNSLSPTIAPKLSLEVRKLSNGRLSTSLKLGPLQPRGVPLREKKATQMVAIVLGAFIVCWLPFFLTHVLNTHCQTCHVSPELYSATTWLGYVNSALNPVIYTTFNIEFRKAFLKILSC

[11] = DRUGMATRIX: Glutamate, AMPA radioligand binding (ligand: [3H] AMPA); type: cell membranes, Rattus norvegicus, Wistar, Cerebral cortex, Membrane; conditions: Not Active = under 50% inhibition at 10 µM
[12] = target: Glycine receptor (Rattus norvegicus, UniProt P22771+P24524+P07727+P20781); type: cell membranes, Wistar, Spinal cord, Membrane; also: in other assays of this panel Not Active means under 50% inhibition at 10 µM
[13] = target: T3, Thromboxane-A synthase (Homo sapiens, UniProt P24557); assay: biochemical; type: tissue-based, Platelet; conditions: platelet
T3 sequence (P24557 whole entry): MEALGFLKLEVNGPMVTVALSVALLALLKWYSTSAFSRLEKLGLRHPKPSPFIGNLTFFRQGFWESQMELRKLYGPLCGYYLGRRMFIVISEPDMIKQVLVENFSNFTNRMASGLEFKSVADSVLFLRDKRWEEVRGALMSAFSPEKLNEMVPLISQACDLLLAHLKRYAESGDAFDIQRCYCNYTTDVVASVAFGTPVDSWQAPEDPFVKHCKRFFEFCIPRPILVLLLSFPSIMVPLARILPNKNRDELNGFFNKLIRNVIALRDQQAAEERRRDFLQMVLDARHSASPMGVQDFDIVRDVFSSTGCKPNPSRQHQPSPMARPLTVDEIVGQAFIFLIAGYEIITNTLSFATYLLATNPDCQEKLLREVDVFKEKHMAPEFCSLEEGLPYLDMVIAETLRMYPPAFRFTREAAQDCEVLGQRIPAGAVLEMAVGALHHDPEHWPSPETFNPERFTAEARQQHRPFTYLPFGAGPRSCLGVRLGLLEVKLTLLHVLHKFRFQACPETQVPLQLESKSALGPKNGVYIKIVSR

[14] = DRUGMATRIX: Platelet-Derived Growth Factor (PDGF) radioligand binding (ligand: [125I] PDGF); type: cell-based; conditions: nih3t3; Not Active = under 50% inhibition at 10 µM
[15] = DRUGMATRIX: Sodium/nucleoside co-transporter radioligand binding (ligand: nitrobenzylthioinosine); type: cell membranes, Cavia porcellus, Dunkin-Hartley, Cerebral cortex, Membrane; conditions: Not Active = under 50% inhibition at 10 µM
[16] = target: 5-hydroxytryptamine receptor 2B (Homo sapiens, UniProt P41595); type: cell membranes, CHO-K1, Membrane; conditions: cho-k1; also: in other assays of this panel Not Active means under 50% inhibition at 10 µM
Sequence of 5-hydroxytryptamine receptor 2B (P41595 whole entry): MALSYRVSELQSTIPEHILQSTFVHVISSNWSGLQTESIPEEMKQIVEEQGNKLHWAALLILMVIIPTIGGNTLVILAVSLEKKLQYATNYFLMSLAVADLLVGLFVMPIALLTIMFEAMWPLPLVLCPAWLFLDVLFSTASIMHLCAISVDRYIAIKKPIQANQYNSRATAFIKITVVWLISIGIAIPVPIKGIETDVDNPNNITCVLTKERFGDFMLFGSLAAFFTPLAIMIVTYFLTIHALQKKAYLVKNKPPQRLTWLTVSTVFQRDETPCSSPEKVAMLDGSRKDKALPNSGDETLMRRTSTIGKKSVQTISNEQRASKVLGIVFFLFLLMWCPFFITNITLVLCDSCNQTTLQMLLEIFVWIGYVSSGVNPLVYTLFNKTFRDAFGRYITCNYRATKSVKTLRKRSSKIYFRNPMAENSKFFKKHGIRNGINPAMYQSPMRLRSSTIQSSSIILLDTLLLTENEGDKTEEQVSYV

[17] = DRUGMATRIX: Imidazoline I2, Central radioligand binding (ligand: [3H] Idazoxan); type: cell membranes, Rattus norvegicus, Wistar, Cerebral cortex, Membrane; conditions: Not Active = under 50% inhibition at 10 µM

N=C(N)NCCCCNC(=N)N.O=S(=O)(O)O [ARCAINE SULFATE]
Not Active: IC50 [1] | IC50 [2] | IC50 [3] | Ki [3] | IC50 [4] | IC50 [5] | Ki [5] | IC50 [6] | IC50 [7] | Ki [7] | IC50 [8] | IC50 [9] | IC50 [10] | IC50 [11] | Ki [11] | IC50 [12] | IC50 [13] | IC50 [14] | Ki [14] | IC50 [15] | Ki [15] | IC50 [16] | IC50 [17] | Ki [17]

C=C1[C@@H]2CCC3[C@@](CC[C@@H]4[C@H](C(=O)O)C[C@@H](O[C@@H]5O[C@H](CO)[C@@H](OS(=O)(=O)[O-])[C@H](OS(=O)(=O)[O-])[C@H]5OC(=O)CC(C)C)C[C@@]34C)(C2)[C@@H]1O.[K+].[K+] (stereo not given in full) [ATRACTYLOSIDE]
Not Active: IC50 [1] | IC50 [2] | IC50 [3] | Ki [3] | IC50 [4] | IC50 [5] | Ki [5] | IC50 [6] | IC50 [7] | Ki [7] | IC50 [8] | IC50 [9] | IC50 [10] | IC50 [11] | Ki [11] | IC50 [12] | IC50 [13] | IC50 [14] | Ki [14] | IC50 [15] | Ki [15] | IC50 [16] | IC50 [17] | Ki [17]

Cn1cnc([N+](=O)[O-])c1Sc1ncnc2nc[nH]c12 [AZATHIOPRINE]
Not Active: IC50 [1] | IC50 [2] | IC50 [3] | Ki [3] | IC50 [4] | IC50 [5] | Ki [5] | IC50 [6] | IC50 [7] | Ki [7] | IC50 [8] | IC50 [9] | IC50 [10] | IC50 [11] | Ki [11] | IC50 [12] | IC50 [13] | IC50 [14] | Ki [14] | IC50 [15] | Ki [15] | IC50 [16] | IC50 [17] | Ki [17]

CC1(C)S[C@@H]2[C@H](NC(=O)[C@H](NC(=O)N3CCNC3=O)c3ccccc3)C(=O)N2[C@H]1C(=O)O [AZLOCILLIN]
Not Active: IC50 [1] | IC50 [2] | IC50 [3] | Ki [3] | IC50 [4] | IC50 [5] | Ki [5] | IC50 [6] | IC50 [7] | Ki [7] | IC50 [8] | IC50 [9] | IC50 [10] | IC50 [11] | Ki [11] | IC50 [12] | IC50 [13] | IC50 [14] | Ki [14] | IC50 [15] | Ki [15] | IC50 [16] | IC50 [17] | Ki [17]

CC[C@H](C)[C@H](N)C1=N[C@H](C(=O)N[C@@H](CC(C)C)C(=O)N[C@H](CCC(=O)O)C(=O)N[C@H](C(=O)N[C@H]2CCCCNC(=O)[C@H](CC(N)=O)NC(=O)[C@@H](CC(=O)O)NC(=O)[C@H](Cc3cnc[nH]3)NC(=O)[C@@H](Cc3ccccc3)NC(=O)[C@H]([C@@H](C)CC)NC(=O)[C@@H](CCCN)NC2=O)[C@@H](C)CC)CS1 [BACITRACIN] ({Ileψ(thiazoline)Cys}-L[dE]IK[dOrn]I[dF]H[dD]N; lactam 4-C)
Not Active: IC50 [1] | IC50 [2] | IC50 [3] | Ki [3] | IC50 [4] | IC50 [5] | Ki [5] | IC50 [6] | IC50 [7] | Ki [7] | IC50 [8] | IC50 [9] | IC50 [10] | IC50 [11] | Ki [11] | IC50 [12] | IC50 [13] | IC50 [14] | Ki [14] | IC50 [15] | Ki [15] | IC50 [16] | IC50 [17] | Ki [17]
